Several values for one entry are separate records, joined by “and”; a condition that tells them apart may be missing. Equal entries are not always repeated.
How the values were obtained:
[1] = Crystal; for vapor or sublimation pressure: Closed cell (Static) method
[2] = Molar enthalpy of transition or fusion; settings: Crystal; DSC
[3] = molar heat capacity at constant pressure; settings: 100 kPa, DSC

C1=Cc2cccc3cccc1c23 [acenaphthylene]
[1]
Settings	Normal melting temperature [°C]	vapor or sublimation pressure
296.95 K	–	0.00087 kPa
296.97 K	–	0.00086 kPa
296.98 K	–	0.00088 kPa
302.22 K	–	0.00147 kPa
302.23 K	–	0.00148 kPa and 0.00147 kPa
307.47 K	–	0.00244 kPa
307.48 K	–	0.00247 kPa
307.49 K	–	0.00243 kPa
312.71 K	–	0.00399 kPa
312.72 K	–	0.00399 kPa and 0.00397 kPa
317.89 K	–	0.00629 kPa and 0.00628 kPa and 0.00632 kPa
323.06 K	–	0.00986 kPa
323.07 K	–	0.00984 kPa and 0.00986 kPa
328.2 K	–	0.01511 kPa
328.21 K	–	0.01516 kPa
328.22 K	–	0.01513 kPa
333.33 K	–	0.02281 kPa
333.34 K	–	0.02286 kPa and 0.02282 kPa
338.45 K	–	0.03393 kPa and 0.03392 kPa
343.49 K	–	0.04954 kPa
343.5 K	–	0.04955 kPa and 0.0496 kPa
348.54 K	–	0.07154 kPa and 0.07156 kPa
353.54 K	–	0.1018 kPa
353.55 K	–	0.1017 kPa and 0.1018 kPa
358.56 K	–	0.1434 kPa and 0.1435 kPa
361.06 K	–	0.1694 kPa
361.07 K	–	0.1693 kPa and 0.1695 kPa
363.54 K	–	0.1995 kPa
363.55 K	–	0.1996 kPa and 0.1994 kPa
DTA	92.00	–

Settings	Molar enthalpy of transition or fusion [kcal/mol]
[2]	2.8

[3]
Settings	molar heat capacity at constant pressure
304.12 K, Crystal	185.5 J/K/mol and 185.08 J/K/mol and 185.83 J/K/mol
306.11 K, Crystal	186.74 J/K/mol and 186.41 J/K/mol and 186.24 J/K/mol
308.11 K, Crystal	188.24 J/K/mol and 187.99 J/K/mol and 188.07 J/K/mol
310.11 K, Crystal	188.57 J/K/mol and 188.99 J/K/mol and 188.74 J/K/mol
312.11 K, Crystal	189.4 J/K/mol and 189.49 J/K/mol
314.11 K, Crystal	190.82 J/K/mol and 190.32 J/K/mol
316.11 K, Crystal	191.23 J/K/mol and 191.73 J/K/mol and 192.23 J/K/mol
318.11 K, Crystal	192.31 J/K/mol and 192.65 J/K/mol and 192.15 J/K/mol
320.11 K, Crystal	193.81 J/K/mol and 193.73 J/K/mol and 193.56 J/K/mol
322.11 K, Crystal	195.06 J/K/mol and 195.47 J/K/mol
324.11 K, Crystal	196.55 J/K/mol and 196.06 J/K/mol and 196.14 J/K/mol
326.11 K, Crystal	196.97 J/K/mol and 197.8 J/K/mol and 196.8 J/K/mol
328.12 K, Crystal	198.13 J/K/mol and 198.22 J/K/mol and 198.55 J/K/mol
330.12 K, Crystal	200.13 J/K/mol and 198.88 J/K/mol and 199.8 J/K/mol
332.13 K, Crystal	201.21 J/K/mol and 200.88 J/K/mol and 201.38 J/K/mol
369.13 K, Liquid	247.86 J/K/mol and 248.77 J/K/mol and 247.19 J/K/mol
371.13 K, Liquid	249.1 J/K/mol and 248.1 J/K/mol
373.13 K, Liquid	251.1 J/K/mol and 250.68 J/K/mol and 249.52 J/K/mol
375.13 K, Liquid	250.68 J/K/mol and 249.02 J/K/mol and 253.51 J/K/mol
377.13 K, Liquid	254.17 J/K/mol and 251.51 J/K/mol and 250.68 J/K/mol
379.13 K, Liquid	253.59 J/K/mol and 250.93 J/K/mol and 251.35 J/K/mol
381.13 K, Liquid	253.92 J/K/mol and 251.01 J/K/mol and 252.18 J/K/mol
383.13 K, Liquid	254.76 J/K/mol and 252.59 J/K/mol and 252.51 J/K/mol
385.13 K, Liquid	255.92 J/K/mol and 253.59 J/K/mol and 253.01 J/K/mol
387.13 K, Liquid	255.01 J/K/mol and 253.51 J/K/mol and 252.93 J/K/mol

c1ccc2c(c1)Cc1ccccc1-2 [fluorene]
[3], Crystal
Settings	molar heat capacity at constant pressure
262.36 K	171.44 J/K/mol
262.44 K	171.61 J/K/mol
262.47 K	171.61 J/K/mol
265 K	173.52 J/K/mol and 173.36 J/K/mol
270 K	176.77 J/K/mol and 176.68 J/K/mol
275 K	180.01 J/K/mol and 179.93 J/K/mol and 180.09 J/K/mol
280 K	183.33 J/K/mol and 183.25 J/K/mol
285 K	186.49 J/K/mol and 186.41 J/K/mol and 186.33 J/K/mol
290 K	189.65 J/K/mol and 189.49 J/K/mol and 189.4 J/K/mol
295 K	192.9 J/K/mol and 192.81 J/K/mol and 192.73 J/K/mol
300 K	196.47 J/K/mol and 196.31 J/K/mol
305 K	201.38 J/K/mol and 201.21 J/K/mol
310 K	208.11 J/K/mol and 208.2 J/K/mol and 207.95 J/K/mol
315 K	216.18 J/K/mol and 216.34 J/K/mol and 216.09 J/K/mol
320 K	223.33 J/K/mol and 223.66 J/K/mol and 223.41 J/K/mol
325 K	227.9 J/K/mol and 228.32 J/K/mol
330 K	231.81 J/K/mol and 232.39 J/K/mol and 232.31 J/K/mol
335 K	236.96 J/K/mol and 237.3 J/K/mol and 237.21 J/K/mol
340 K	242.04 J/K/mol and 241.87 J/K/mol
345 K	246.77 J/K/mol and 246.61 J/K/mol
350 K	251.85 J/K/mol and 251.76 J/K/mol and 251.68 J/K/mol
355 K	257.25 J/K/mol and 257.17 J/K/mol and 257.08 J/K/mol
358.37 K	261.08 J/K/mol
358.5 K	261.32 J/K/mol and 261.24 J/K/mol

— the NIST ThermoML archive (doi:10.1016/j.fluid.2016.11.012)
